Where two headings read alike, the source gives them in different places.
Assays:
[1] = tested on: skeletal muscle (vastus laterais, gastrocnemius, soleus); test: Skeletal muscle fiber type and immunoblot; type: in vivo, mouse; settings: butyrate 5% w/w in HFD 13 weeks
Source text: Fresh fat and muscles were collected and frozen in liquid nitrogen. The whole cell lysate protein was extract in lysis buffer with sonication and analyzed in western blot as described elsewhere (16). Antibodies were used in study of myoglobin (sc-25607, Santa Cruz), PGC-1 (sc-13068, Santa Cruz), Tubulin (ab7291, Abcam), myosin (M8421, Sigma), pAMPK (Thr 172, #2531, Cell signaling) and p-p38 (sc-7975, Santa Cruz). To detect multiple signals from one membrane, the membrane was stripped with a stripping buffer. Intensity of the immunoblot signal was quantified using a computer program, ImageJ 1.37v (NIH). The mean values of results from three experiments (6 mice each group) were presented. The antibodies to PGC-1α and UCP-1 were from Dr. Thomas Gettys at Pennington Biomedical Research Center, Baton Rouge, La.
The fiber types in skeletal muscle were examined using two methods: succinate dehydrogenase (SDH) staining for […] and immunostaining of type I myosin heavy chain. In the SDH staining, mid-belly cross-sections of muscle were cut at 8 μm in a cryostat (−20° C.). After drying for 5 min at room temperature, the sections were incubated at 37° C. for 60 min in the incubation solution containing 6.5 mmol/l sodium phosphate monobasic, 43.5 mmol/l sodium phosphate biphasic, 0.6 mmol/l nitroblue tetrazolium (74032, Sigma), and 50 mmol/l sodium succinate (14160, Sigma). The sections were rinsed three times (30 sec/time) in 0.9% saline, 5 min in 15% ethanol and then mounted with aqueous mounting medium (Dakocyrtoma).
Fresh skeletal muscle was collected, embedded in gum tragacanth mixed with OCT freezing matrix, and quickly frozen in isopentane cooled in liquid nitrogen. The tissue slides were obtained through serial cross-section cutting at 8 um thickness and processed with a standard procedure. The slides was blotted with a monoclonal antibody against the type I myosin heavy chain (M8421, Sigma) at 1:200 dilution. After being washed, the slide was incubated with a biotinylated secondary antibody (BA-2000). For PGC-1 staining, paraffin sections (8 μm) of BAT or inguinal fat on slides were deparaffinized and blotted with primary antibody of PGC-1 (sc-13067, Santa Cruz) at 1:200, the sections were washed and incubated with a biotinylated secondary antibody (rabbit IgG) in ABC kit. The slides were then incubated with the ABC elite reagent (PK-6101) and color reaction was performed using the DAB substrate kit (SK-4100) for myosin I and AEC substrate kit (AEC101, Sigma) for PGC-1a according to instructions by the manufacturers.
To look for oxidative fiber in skeletal muscle, the vastus laterais muscle was isolated from mice that were fed on HFD for 13 weeks. […] A fiber type analysis was conducted in the vastus laterais, gastrocnemius (rich in glycolytic fibers) and soleus (rich in oxidative fiber). Serial cryostat sections of muscle were made from vastus lateralis, gastrocnemius (gastr.) and soleus muscle. The slides were stained with antibody against Type I myosin heavy chain for oxidative fibers. The ratio of type I fibers were increased in all of the skeletal muscle of butyrate-treated mice (data not shown). Succinate dehydrogenase staining of oxidative fibers was done on serial cryostat sections of the vastus lateralis and gastrocnemius (gastr.) muscle.
To quantify the amount of protein of type 1 myosin heavy chain and PGC-1α, whole cell lysates were prepared from muscle tissues and analyzed in an immunoblot. Signals for PGC-1α, type I myosin heavy chain (Myosin), myoglobin, phospho-AMPK and phospho-p38 (p-p38) were blotted with specific antibodies. Relative signal strength was quantified for each band and expressed in FIG. 5B. The results are the mean±SE (n=8 mice). *P<0.01, ** P<0.001 (vs. control). […] A mean value of each protein was presented in the bar figure in FIG. 5B.
AMPK and p38 activities were examined by their phosphorylation status. […]

[2] = Butyrate concentration in plasma; type: in vivo; settings: mouse, oral, 5 % w/w in HFD, butyrate 5% w/w in HFD for 16 weeks
Method: The serum fatty acids including butyrate were examined using a protocol described elsewhere (18), and as described below in Example 10. The fatty acids in feces were determined using a protocol as described by Schwarz (19). Triglyceride and cholesterol were measured in the whole blood with the Cardiochek portable test system.
The butyrate concentration was analyzed in plasma collected from the butyrate and control groups in mice fed HFD for 16 weeks. In a fasted condition (overnight fast), the butyrate concentration was 7.23±0.93 μg/ml in the butyrate group and 5.71±0.38 μg/ml in the control. […] Data are presented as means±SE (n=6). * P<0.05; ** P<0.001.

SMILES: CCCC(=O)[O-].[Na+] [sodium butyrate]
- AMPK phosphorylation in muscle lysate ([1]; immunoblot): increase in their phosphorylation
- PGC-1α protein in muscle ([1]; immunoblot): significant increase
- myoglobin protein in muscle ([1]; immunoblot): also increased
- p38 phosphorylation in muscle lysate ([1]; immunoblot): increase in their phosphorylation
- type 1 myosin heavy chain protein in muscle ([1]; immunoblot): significant increase
- Type I fibers (succinate dehydrogenase staining) ([1]; vastus lateralis and gastrocnemius): increase in Type I fibers
- ratio of type I fibers (Type I myosin heavy chain immunostaining) ([1]; vastus lateralis, gastrocnemius, soleus): increased
- concentration at 16 weeks ([2]; fed, read-out: butyrate concentration in plasma, fed condition): 9400 ± 1360 ng/mL
- concentration at 16 weeks ([2]; overnight fast, read-out: butyrate concentration in plasma, fasted condition): 7230 ± 930 ng/mL

— patent publication US20130123358A1, “Metabolic Benefits to Butyrate as a Chronic Diet Supplement” (priority 2009, published 2013)
